According to US20180055915A1, “COMPOSITIONS AND METHODS FOR TREATING PROSTATE CANCER” (UNIVERSITY OF ROCHESTER, priority 2016, published 2018):
Residues, ends and D or L forms follow the SMILES beside them. *: point of attachment. Cbz = O=C(OCc1ccccc1)*

Experiments:
[1] = tested on: PCa cell; conditions: in vitro and in vivo; cited from earlier work
[2] = tested on: wild type AR, ARv7, AR-F876L; conditions: cited from earlier work
[3] = tested on: ARv7 mRNA; test: ARv7 mRNA expression (real-time PCR); assay type: cell-based
Procedure: (§1) Total RNAs were isolated using Trizol reagent (Invitrogen, Grand Island, N.Y.). 2 μg of total RNA was subjected to reverse transcription using Superscript III transcriptase (Invitrogen). Quantitative real-time PCR (qRT-PCR) was conducted using a Bio-Rad CFX96 system with SYBR green to determine the mRNA expression level of a gene of interest. Expression levels were normalized to the expression of GAPDH.

[4] = tested on: EnzR1-C4-2 cells; test: MTT cell proliferation assay, EnzR1-C4-2; assay type: cell-based
Procedure: (§2) Cells were seeded in 24-well plates (5×10^3 cells/500 μL media per well) and cultured for 0, 2, 4 and 6 days. Cells were harvested and cell numbers and absorbance were calculated and recorded after using yellow tetrazolium MTT (3-(4, 5-dimethylthiazolyl-2)-2,5-diphenyltetrazolium bromide agent.

[5] = CRPC patients; cited from earlier work
[6] = tested on: Enz-S1-C4-2 cells; test: Enz sensitivity after 2 months treatment (MTT proliferation); assay type: cell-based
Procedure: as §2

[7] = tested on: AR promoter; test: AR promoter luciferase assay (pAR-luc) in EnzR2-CWR22Rv1 cells; assay type: cell-based; conditions: 1 ug/mL Cis, FIG. 5B
From the text: In addition to function via altering the AR-ubiquitination to decrease ARv7 (and AR) protein expression and modulating the Malat1/SF2 RNA splicing complex to decrease ARv7 mRNA biosynthesis/expression, it is interesting to see the potential 3rd molecular mechanism at transcriptional regulation to alter the AR expression for Cis to decrease ARv7 mRNA expression. […] A 3.6 kb AR promoter was then constructed into pGL3 luciferase vector (pAR-luc) and transfected pAR-luc into EnzR2-CWR22Rv1 cells for luciferase assay.

[8] = tested on: EnzR3-C4-2B cells; test: MTT cell proliferation assay, EnzR3-C4-2B; assay type: cell-based; conditions: FIG. 2H
Procedure: as §2

[9] = tested on: glucocorticoid receptor (GR); test: Glucocorticoid receptor expression; assay type: cell-based
[10] = tested on: AR mRNA; test: AR mRNA expression (real-time PCR); assay type: cell-based; conditions: FIG. 5A
Procedure: as §1

[11] = tested on: Malat1; test: Malat1 mRNA expression (real-time PCR); assay type: cell-based; conditions: EnzR1-C4-2 cells, FIG. 4F
Procedure: as §1

[12] = tested on: AR-ubiquitin complex; test: AR-ubiquitination immunoprecipitation in 293T cells; assay type: cell-based, human; conditions: 293T cells with AR and ubiquitin-GPF, FIG. 4D
Procedure: Then examined was whether ubiquitination involves in ARv7 (and AR) degradation. First added were AR and ubiquitin-GPF in 293T cells, and then applied the immunoprecipitation assay to examine Cis effect on AR-ubiquitination.
(§3) For protein degradation, EnzR C4-2 cells were treated with 1 μg/mL Cisplatin for 6 hr. Cycloheximide or MG132 was added for another 4 hrs. For ubiquitination, human kidney epithelial HEK293T cells were grown in DMEM media with 10% FCS. Cells were plated at ˜60% confluency and pGFP-ubiquitin, pAR were transiently transfected into cells using CaCl2 reagent. After 48 hrs. of transfection, cells were treated with 1 μg/mL Cisplatin for 6 hrs. […], MG132, was added for another 4 hrs. Cell extracts were analyzed for AR degradation or AR-ubiquitination by using western blot.

[13] = biological target: T1, AR mutant AR876 (Homo sapiens, UniProt P10275, F877L); test: AR876 expression in PC3 cells stably transfected with AR876-cDNA; assay type: cell-based; conditions: FIG. 1G
T1 construct: expressed in transfected cells; host or cells: PC3
T1 sequence (P10275 1-920 F877L): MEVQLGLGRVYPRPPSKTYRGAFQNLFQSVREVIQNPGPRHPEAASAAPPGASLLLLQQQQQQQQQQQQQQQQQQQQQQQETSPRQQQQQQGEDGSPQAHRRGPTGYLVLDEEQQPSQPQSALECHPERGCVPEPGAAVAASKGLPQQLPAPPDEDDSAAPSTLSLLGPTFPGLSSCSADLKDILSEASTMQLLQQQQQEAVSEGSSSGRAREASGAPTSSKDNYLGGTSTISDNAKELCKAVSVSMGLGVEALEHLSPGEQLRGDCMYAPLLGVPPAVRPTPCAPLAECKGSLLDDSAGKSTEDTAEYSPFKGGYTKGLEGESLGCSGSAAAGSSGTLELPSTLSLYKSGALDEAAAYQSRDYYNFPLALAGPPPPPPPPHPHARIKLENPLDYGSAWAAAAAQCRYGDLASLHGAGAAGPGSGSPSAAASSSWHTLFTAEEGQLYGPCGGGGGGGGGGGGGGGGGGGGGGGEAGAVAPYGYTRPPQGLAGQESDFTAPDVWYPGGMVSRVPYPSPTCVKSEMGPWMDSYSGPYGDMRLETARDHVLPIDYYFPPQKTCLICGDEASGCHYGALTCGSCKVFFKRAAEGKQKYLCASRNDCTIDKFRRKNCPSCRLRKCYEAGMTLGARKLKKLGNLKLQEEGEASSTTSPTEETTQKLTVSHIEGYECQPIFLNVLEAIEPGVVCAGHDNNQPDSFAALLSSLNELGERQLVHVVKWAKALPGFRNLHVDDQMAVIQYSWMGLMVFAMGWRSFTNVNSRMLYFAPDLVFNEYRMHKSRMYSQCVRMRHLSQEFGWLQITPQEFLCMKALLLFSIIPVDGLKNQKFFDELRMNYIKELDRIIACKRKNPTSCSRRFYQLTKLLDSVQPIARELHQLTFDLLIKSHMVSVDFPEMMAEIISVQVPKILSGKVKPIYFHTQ
Procedure: (§4) Cells were lysed in lysis buffer and proteins (50 μg) were separated on 10% SDS/PAGE gel and then transferred onto PVDF membranes (Millipore, Billerica, Mass.). After blocking membranes with 5% milk, they were incubated with appropriate dilutions of specific primary antibodies (anti-AR (N-20), anti-SF2, anti-GFP, anti-GAPDH, anti-a-tubulin). The blots were incubated with HRP-conjugated secondary antibodies and visualized using ECL system (Thermo Fisher Scientific, Rochester, N.Y.).

[14] = tested on: SF2; test: SF2 protein level; assay type: cell-based
Procedure: as §4

[15] = biological target: T2, ARv7 (Homo sapiens, UniProt P10275); test: ARv7 protein expression/degradation in CRPC cells (western blot); assay type: cell-based
T2 construct: endogenous in cells; host or cells: EnzR1 C4-2, EnzR3 C4-2B, EnzR2 CWR22Rv1
T2 sequence (P10275 1-644 isoform P10275-3): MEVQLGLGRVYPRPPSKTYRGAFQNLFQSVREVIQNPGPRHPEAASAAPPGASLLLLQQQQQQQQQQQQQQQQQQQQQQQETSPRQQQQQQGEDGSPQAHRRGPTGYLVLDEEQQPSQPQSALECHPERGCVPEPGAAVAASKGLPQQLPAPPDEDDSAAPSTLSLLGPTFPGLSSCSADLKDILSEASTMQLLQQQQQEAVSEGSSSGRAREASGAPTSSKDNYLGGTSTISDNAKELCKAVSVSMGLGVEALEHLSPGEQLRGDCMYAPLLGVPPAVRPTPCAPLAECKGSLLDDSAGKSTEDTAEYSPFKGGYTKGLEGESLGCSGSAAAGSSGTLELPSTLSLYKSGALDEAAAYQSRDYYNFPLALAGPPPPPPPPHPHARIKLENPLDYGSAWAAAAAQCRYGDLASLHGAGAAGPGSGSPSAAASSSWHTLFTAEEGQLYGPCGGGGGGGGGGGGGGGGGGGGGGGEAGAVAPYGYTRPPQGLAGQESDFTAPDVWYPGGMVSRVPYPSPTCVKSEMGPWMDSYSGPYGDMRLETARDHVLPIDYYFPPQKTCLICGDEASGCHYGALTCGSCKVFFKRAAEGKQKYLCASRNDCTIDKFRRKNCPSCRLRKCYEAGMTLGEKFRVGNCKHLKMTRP
Procedure: (§5) To further dissect the mechanism(s) why Cis can decrease ARv7 (and AR) protein expression, first assayed was the Cis effects on ARv7 (and AR) protein stability with protein biosynthesis inhibitor, cycloheximide (CHX) and proteasome inhibitor MG132 in EnzR2-CWR22Rv1 cells.
as §3, §4

[16] = tested on: EnzR2-CWR22Rv1 cells; test: MTT cell proliferation assay, EnzR2-CWR22Rv1; assay type: cell-based; conditions: FIG. 2E
Procedure: as §2

[17] = tested on: AR; test: AR protein expression/degradation in CRPC cells (western blot); assay type: cell-based
Procedure: as §5, §3, §4

[18] = tested on: estrogen receptor b (ERb); test: Estrogen receptor b expression; assay type: cell-based
[19] = tested on: cPARP; test: Cell apoptosis by cPARP level; assay type: cell-based
[20] = tested on: lncRNA RP11-473I1.9; test: lncRNA RP11-473I1.9 expression (real-time PCR); assay type: cell-based; conditions: FIG. 4G
Procedure: as §1

[21] = tested on: EnzR2-CWR22Rv1 cells; test: Orthotopic EnzR xenograft in castrated nude mice; assay type: in vivo
[22] = EnzR2-CWR22Rv1 cells, after 6 hrs treatment, FIG. 4A
[23] = EnzR3-C4-2 cells, Cis at 1 ug/mL, FIG. 2J
[24] = EnzS1-C4-2 cells, Cis at 1-2 ug/mL, FIG. 2I

SF2, sequence (Q07955 whole entry): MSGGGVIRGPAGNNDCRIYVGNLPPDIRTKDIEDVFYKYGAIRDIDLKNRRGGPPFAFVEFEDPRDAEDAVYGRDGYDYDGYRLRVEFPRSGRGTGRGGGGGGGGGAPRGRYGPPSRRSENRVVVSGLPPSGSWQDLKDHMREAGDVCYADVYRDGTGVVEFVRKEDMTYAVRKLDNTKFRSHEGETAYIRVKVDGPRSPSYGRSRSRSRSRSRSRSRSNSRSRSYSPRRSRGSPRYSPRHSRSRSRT

O=C(Nc1ccc([N+](=O)[O-])cc1Cl)c1cc(Cl)ccc1O [niclosamide]
PCa cell growth [1]: suppress the PCa cell growth in vitro and in vivo

COc1ccc(/C=C/C(=O)/C=C(O)/C=C/c2ccc(OC)c(OC)c2)cc1OC [ASC-J9®]
degradation of wild type AR, ARv7 and AR mutants including AR-F876L [2]: could degrade both wild type AR and the AR variant ARv7 or AR mutants including AR-F876L

CC(O)(CS(=O)(=O)c1ccc(F)cc1)C(=O)Nc1ccc(C#N)c(C(F)(F)F)c1 (stereo not shown) [Casodex]
degradation of wild type AR, ARv7 and AR mutants including AR-F876L [2]: not

CNC(=O)c1ccc(N2C(=S)N(c3ccc(C#N)c(C(F)(F)F)c3)C(=O)C2(C)C)cc1F [Enz, 4-(3-(4-Cyano-3-(trifluoromethyl)phenyl)-5,5-dimethyl-4-oxo-2-thioxoimidazolidin-1-yl)-2-fluoro-N-methylbenzamide]
ARv7 mRNA expression ([3]; Enz-S1-C4-2 cells, Enz treatment, FIG. 3D): led to increase ARv7 mRNA expression | suppression of cell growth ([4]; 20 uM Enz alone, FIG. 2A): little effect | extension of overall survival (average) [5]: 4.8 months | Enz sensitivity ([6]; Enz-S1-C4-2 cells before long-term treatment, FIG. 3A): 54% | Enz sensitivity ([6]; after 10 uM Enz alone for 2 months, FIG. 3B): 38%

(SP-4-2)-diamminedichloroplatinum(II) [Cis]
AR promoter activity (pAR-luc luciferase) [7]: can also decrease AR mRNA expression at transcriptional level via altering AR promoter activity | IC50 (cell growth) [8]: 3.3 µg/mL | IC50 ([8]; read-out: IC50 (cell growth)): 10.9 µM | GR expression [9]: little effect to decrease | AR mRNA [10]: could also decrease AR mRNA in a dose-dependent manner | Malat1 mRNA expression [11]: decreased in dose-dependent manner | AR-ubiquitin complex [12]: may increase the AR-ubiquitin complex | ARv7 mRNA expression ([3]; Enz-S1-C4-2 cells, Enz plus Cis (0.2 ug/mL), FIG. 3D): suppressed the Enz-increased ARv7 significantly | ARv7 mRNA expression ([3]; EnzR1-C4-2 cells, FIG. 4E): decreased in dose-dependent manner | AR876 expression [13]: can also decrease | SF2 protein expression [14]: may decrease SF2 protein expression in a dose-dependent manner | suppression of cell growth ([4]; 20 uM Enz combined with 2 ug/mL (6.6 uM) Cis, FIG. 2B): could suppress EnzR1-C4-2 cell growth | IC50 (cell growth) ([4]; Cis combined with 20 uM Enz, FIG. 2C): ~5 µg/mL | IC50 ([4]; Cis combined with 20 uM Enz, FIG. 2C, read-out: IC50 (cell growth)): ~16.5 µM | ARv7 (and AR877) degradation ([15]; CWR22Rv1 cells, Cis plus CHX compared to CHX alone, FIG. 4C): can facilitate ARv7 (and AR877) degradation | ARv7 expression ([15]; EnzR1-C4-2 cells, increasing Cis, FIG. 1B): diminishing ARv7 was detected upon increasing Cis | ARv7 protein degradation [15, 22]: could degrade ARv7 (and AR) | IC50 (cell growth) [16]: 5 µg/mL | IC50 ([16]; read-out: IC50 (cell growth)): 16.5 µM | AR expression ([17]; EnzR1-C4-2 cells, FIG. 1B): could suppress the AR | AR protein degradation [17, 22]: could degrade ARv7 (and AR) | AR degradation [17, 23]: may degrade AR | AR degradation [17, 24]: could degrade AR | AR expression ([17]; EnzS1-C4-2 cells, FIG. 1A): could suppress the AR | ERb expression [18]: little effect to decrease | cell apoptosis (cPARP) [19, 23]: little change in cPARP | cell apoptosis (cPARP) [19, 24]: little change in cPARP | lncRNA RP11-473I1.9 expression [20]: little effect | Enz sensitivity ([6]; after 10 uM Enz plus 0.2 ug/mL (0.66 uM) Cis for 2 months, FIG. 3C): 62% | tumor progression ([21]; Enz 3.5 mg/kg every other day i.p. with vs without Cis 3.5 mg/kg weekly i.v., 3 weeks): can increase/restore the Enz sensitivity to further suppress the EnzR3-C4-2B tumor progression | tumor expression of ARv7 (and AR), Malat1 and SF2 (immunohistochemistry) ([21]; tumor received Cis+Enz): lower expression of ARv7 (and AR), as well as Malat1 and SF2

CC(C)C[C@@H](C=O)NC(=O)[C@H](CC(C)C)NC(=O)[C@H](CC(C)C)NC(=O)OCc1ccccc1 [MG132] (Cbz-Leu-Leu-Leu-aldehyde)
effect on Cis-induced ARv7 (and AR) degradation ([15]; MG132 with Cis 6 hrs, FIG. 4B): attenuate/inhibit the effect of Cis on ARv7 (and AR) degradation
